The text below walks through data of patent publication US20260198495A1, “BINARY INSECTICIDE COMPOSITION AND USE THEREOF” (SHENYANG SINOCHEM AGROCHEMICALS R & D CO., LTD., priority 2022, published 2026).

The structures appear in SMILES notation.

Common to all, as to format: in vivo
Series [1] deals with 2nd-instar nymphs of Frankliniella occidentalis Pergande. As to the kind of experiment: Joint toxicity of I-72 + spinetoram, leaf spraying, Example 11, Table 11. As to conditions: Frankliniella occidentalis, kidney bean leaf spraying, 48 h, A = compound I-72, B = spinetoram, read-out: LC50. The source says:
Test subject: 2nd-instar nymphs of Frankliniella occidentalis Pergande, a sensitive strain reared indoors.
Experimental method: the spraying method was adopted. The kidney bean leaves cultivated in the greenhouse were selected, and the petioles were wrapped with moist degreased cotton and sealing film. They were evenly sprayed with the pesticide solution in the order from low dosage to high dosage according to the experimental design, placed in a 6-cm-diameter Petri dish with filter paper. After natural air-drying in the shade, the test insects were introduced, with 20 insects for each treatment and 3 replicates. In addition, a blank control was set up. The number of dead and live insects was investigated 48 hours later. The corrected mortality rate was calculated using the Abbott's formula, and the DPS data processing software was used for statistical analysis to calculate the toxicities (LC50 values) of the single test pesticides and the mixtures under the test ratios.
The test conditions, the preparation of the pesticide solution and the evaluation method were the same as those in Example 1.

Series [2] deals with Bemisia tabaci (Gennadius) nymphs. Nature of the series: Joint toxicity of I-72 + pyrifluquinazon, Example 77, Table 77. As to conditions: Bemisia tabaci; A = compound I-72, B = pyrifluquinazon; cotton leaf-disk spraying; 96 hours; read-out: LC50. The protocol:
Test target: Bemisia tabaci (Gennadius) nymphs, a sensitive strain reared indoors.
(§1) Preparation of the pesticide solution: according to different test requirements, the test samples were accurately weighed respectively with an electronic analytical balance. The technical pesticides were dissolved in acetone, and then diluted with 0.1% Tween 80 water into a series of pesticide solutions with a certain concentration gradient according to the experimental design dosage.
Experimental method: first, cotton leaves with neat and consistent Bemisia tabaci (Gennadius) nymphs were selected and made into leaf disks, with about 20 insects on each leaf disk. Then, they were evenly sprayed with the pesticide solution in the order from low dosage to high dosage according to the experimental design, with 1.5 mL for each leaf and 3 replicates for each treatment. In addition, a blank control was set up.
The treated test materials were placed in an observation room, and the temperature, humidity and illumination of the observation room could be adjusted as needed. The number of dead and live insects was investigated 96 hours later. […] Then, the co-toxicity coefficient of each ratio was calculated using the Sun Y-P method to evaluate the mixing effect (the same as in Example 1).

For series [3], the system named is 3rd-instar larvae of Yponomeuta evonymallus (Linnaeus). As to the kind of experiment: Synergism screening (Bliss) of I-72 + pyrethroid insecticides, Example 37, Table 37. As to conditions: single pesticide, leaf dipping, 72 hours. How it is done:
Test target: 3rd-instar larvae of Yponomeuta evonymallus (Linnaeus).
as §1
Experimental method: Firstly, Hylotelephium spectabile leaves were selected and dipped into the prepared pesticide solutions for 10 s in the order from low dosage to high dosage according to the experimental design. After natural air-drying in the shade, they were placed in a 9-cm-diameter Petri dish with filter paper, and uniform and healthy test insects were introduced, with 10 insects for each treatment and 3 replicates for each treatment. In addition, a blank control (CK) was set up.
The treated test materials were placed in an observation room, and the temperature, humidity and illumination of the observation room could be adjusted as needed. The number of dead and alive insects was investigated 72 hours later, and the corrected mortality rate was calculated using the Abbott's formula.
The synergism of the mixture was evaluated by the Bliss method. According to the concept of independent joint action he proposed, Bliss believes that the theoretical mortality rate P when insecticides are used in combination can be calculated by the following formula: […]
Pm is the measured mortality rate (%) of the target when the first active ingredient is at a concentration of m; and Pn is the measured mortality rate (%) of the target when the second active ingredient is used at a concentration of n.
(§2) If the actual mortality rate of the target after the two active ingredients are mixed at a certain concentration is greater than theoretical mortality rate P, it is determined that the two active ingredients have a synergistic effect when used in combination at the set concentration, and otherwise, they have an antagonistic effect.

Series [4] concerns 3rd-instar larvae of Pyrausta nubilalis Hubern. Nature of the series: Synergism assay (Bliss) of I-72 + cartap, monosultap, bisultap, Example 5, Table 5. The conditions noted are these: Ostrinia nubilalis, 72 h, read-out: Mortality rate (%). The protocol:
Test subject: 3rd-instar larvae of Pyrausta nubilalis Hubern, a sensitive strain reared indoors.
Test conditions: temperature: 24-26° C., humidity: RH 60%, and illumination: L:D=14:10
Preparation method: the test pesticides were accurately weighed respectively with an electronic analytical balance. After the two technical materials were respectively added into an appropriate amount of solvent and completely dissolved, the stock solution of the required concentration was prepared with water containing 0.1% Tween 80. The stock solutions of the two active ingredients were mixed in a certain ratio to prepare a mixed solution, which was then diluted respectively into a series of pesticide solutions with a certain concentration gradient according to the experimental design dosage.
Experimental method: the artificial diet-pesticide film method was adopted. A standard clean 24-well culture plate was selected. 1 ml of artificial diet was added to each well. After the diet cooled and solidified, a quantitative amount of a pesticide solution was added to the culture plate using a continuous sampler, and then it was air-dried naturally in the shade. The standard test insects were introduced, with 1 insect in each well, a total of 48 insects. The treated test insects were placed in an observation room under certain conditions. The reaction of the test insects was regularly observed, and the number of dead and live insects was investigated 72 h later.
The evaluation method adopted was the Bliss method. This method is applicable to the qualitative screening of insecticidal compositions. According to the concept of independent joint action he proposed, Bliss believes that the theoretical mortality rate P when insecticides are used in combination can be calculated by the following formula: […]
Pm is the mortality rate (%) of the target when the first active ingredient is at a concentration of m; and Pn is the mortality rate (%) of the target when the second active ingredient is at a concentration of n.
as §2

As for `CN(C(=O)c1ccc2c(c1)OC(F)(F)O2)c1cccc(C(=O)Nc2c(Br)cc(C(F)(C(F)(F)F)C(F)(F)F)cc2OC(F)F)c1F` [Compound I-72], the figures for the LC50 in series [1] and in series [2] were 1.94 µg/mL and 10.8 µg/mL, respectively. The “Measured mortality rate (%)” value in series [3] (concentration 0.1 mg/L) is recorded as 11.1%; in series [3] (concentration 5 mg/L), 57.1%. The mortality (in general, the share of the test organisms that died) at 0.1 µg/mL in series [4] (single agent 0.1 mg/L) stood at 22.9%. Also, the mortality at 0.5 µg/mL in series [4] (single agent 0.5 mg/L) is 41.7%. In series [4] (single agent 1 mg/L), the mortality at 1 µg/mL came out at 60.4%. Further, the mortality at 2 µg/mL in series [4] (single agent 2 mg/L) worked out at 70.8%. Further, the mortality at 5 µg/mL in series [4] (single agent 5 mg/L) was 87.5%.
